Measurements: patent US11267807B2, “Use of small molecule inhibitors to KLF10 for modulation of T regulatory cells and cancer immunotherapy” (THE BRIGHAM AND WOMEN'S HOSPITAL, INC., priority 2015, dated 2022)
Read-outs that look alike come from different tables or passages of the source. Blank lines part the entries; values can stand above or below the compound they belong to.

Tests used:
CD4+CD25− T cells = test: T regulatory cell differentiation assay, flow cytometry; type: cell-based, mouse; settings: 3 days culture, FIG. 4A-4C
Method: Mouse spleens were meshed through a cell strainer into Phosphate Buffered Saline (PBS) with 2% Fetal Bovine Serum and 1% Penicillin/Streptomycin, and cells were collected by spinning at 1000 rpm for 10 min. CD4+CD25− T cells were purified by using CD4+CD25+ T cell isolation kit (Miltenyi Biotec) according to the manufacturer's instructions. Briefly, cells were incubated with Biotin-conjugated antibodies, followed by anti-biotin microbeads and PE-conjugated anti-CD25 antibody for 30 min on ice with gentle shaking. Mixtures were loaded into pre-washed LD columns in the Magnetic field, and CD4+ cells were collected and then incubated with anti-PE microbeads. Mixtures were loaded into pre-washed MS columns in the magnetic field to collect CD4+CD25− T cells (non-bound cell fraction). Cells were plated into 12-well plates pre-coated with 1 μg/mL anti-CD3e (eBioscience) overnight in RPMI1640 Medium with 10% FBS, 1% Penicillin/Streptomycin, 1% non-essential amino acids, and 2-mercaptoethanol, 1 μg/mL anti-CD28 (BD Biosciences), and 1 ng/mL TGF-β1 (Peprotech). Cells were cultured at 37° C. up to five days for the conversion of CD4+CD25− T cells to CD4+CD25+ T regs. For flow cytometry, cells were stained with anti-mouse CD25 Alexa Fluo®488 (eBioscience) and analyzed by using multicolor FACS (ARIA; BD Biosciences) as previously described.^12

Foxp3 = Foxp3 expression by qPCR during conversion of CD4+CD25− T cells to T regs; type: cell-based, mouse; settings: 50 μM, FIG. 5
Method: Taken together, these observations indicate that these compounds effectively suppress the KLF10 target gene Foxp3, a critical regulator of T reg cell differentiation.^28
T cells were suspended in TRIzol® reagent (Invitrogen), and total RNA was isolated according to the manufacturer's instructions. Reverse transcriptions were performed by using the Reverse Transcription Kit and QuantiTect SYBR Green reverse transcription-PCR kit from Qiagen for quantitative real-time quantitative PCR analysis on a Mx3000P real-time PCR system (Stratagene) following the manufacturer's instructions. Primers were used to detect mouse FoxP3 as previously described.^12
Mouse spleens were meshed through a cell strainer into Phosphate Buffered Saline (PBS) with 2% Fetal Bovine Serum and 1% Penicillin/Streptomycin, and cells were collected by spinning at 1000 rpm for 10 min. CD4+CD25− T cells were purified by using CD4+CD25+ T cell isolation kit (Miltenyi Biotec) according to the manufacturer's instructions. Briefly, cells were incubated with Biotin-conjugated antibodies, followed by anti-biotin microbeads and PE-conjugated anti-CD25 antibody for 30 min on ice with gentle shaking. […] For flow cytometry, cells were stained with anti-mouse CD25 Alexa Fluo®488 (eBioscience) and analyzed by using multicolor FACS (ARIA; BD Biosciences) as previously described.^12

TGF-beta1 = TGF-beta1 expression in CD4+ T cells isolated from B16 melanoma tumors; type: in vivo; settings: mice injected i.p., FIG. 14
KLF10 [1] = target: T1, KLF10 (Homo sapiens, UniProt Q13118); test: Gel mobility shift assay, KLF10 DNA-binding activity; set-up: GST (N); purchased Novus Biologicals
T1 sequence (Q13118 1-480): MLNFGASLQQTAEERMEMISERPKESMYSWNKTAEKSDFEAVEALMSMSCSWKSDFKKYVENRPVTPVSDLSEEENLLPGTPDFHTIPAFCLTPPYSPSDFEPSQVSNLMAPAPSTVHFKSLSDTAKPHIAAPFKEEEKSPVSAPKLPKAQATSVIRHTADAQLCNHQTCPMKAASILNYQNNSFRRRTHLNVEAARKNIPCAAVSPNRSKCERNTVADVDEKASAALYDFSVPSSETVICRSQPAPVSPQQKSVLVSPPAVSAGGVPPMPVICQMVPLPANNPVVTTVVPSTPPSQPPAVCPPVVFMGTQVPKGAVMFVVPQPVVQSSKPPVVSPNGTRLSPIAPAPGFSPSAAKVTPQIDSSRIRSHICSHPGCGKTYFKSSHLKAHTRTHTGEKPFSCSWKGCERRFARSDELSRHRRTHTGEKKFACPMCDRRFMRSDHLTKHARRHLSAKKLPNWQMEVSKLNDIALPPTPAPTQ
Method: The identified small molecule compounds were next examined for effects on KLF10 DNA-protein binding.
KLF10 recombinant protein was obtained from Novus Biologicals. Oligonucleotides 5′-[…] End-labeled oligos (1 μmol/L) were annealed in a buffer system with 10 mM Tris, 50 mM NaCl, pH 8.0 by heating at 95° C. for 5 min, then slowly cooled to 65° C. for 30 min incubation, and cooled to room temperature. […] Compounds were incubated with KLF10 in a reaction system for 4 hrs at room temperature, and then Biotin-labeled probes were added for a 1 hr incubation. Binding reactions were electrophoresed for 80 min at 100 volts on 6% polyacrylamide gel in 0.5×TBE. The binding reactions were transferred to nylon membranes at 100 volts for 45 min, and transferred DNA was cross-linked to membrane using an HL-2000 Hybrilinker instrument. Biotin-labeled DNAs were detected by chemiluminescence.

KLF10 [2] = target: T1, KLF10; test: KLF10 CACCC-luciferase reporter assay in transfected HeLa cells; type: cell-based; set-up: host or cells: HeLa; settings: for inhibition at 100 µM: HeLa
B16 melanoma tumor = test: In vivo B16 melanoma tumor model; set-up: species or system mice
prostate TRAMP-C2 tumors = test: In vivo prostate TRAMP-C2 tumor model; settings: systemic delivery i.p. Day 3, 200 mg/kg, FIG. 13
GLI = target: T2, GLI (Homo sapiens, UniProt P08151); settings: 30 μM, transfected HEK293 cells; cited from earlier work
T2 construct: host or cells: HEK293 (transfected)
T2 sequence (P08151 1-1106): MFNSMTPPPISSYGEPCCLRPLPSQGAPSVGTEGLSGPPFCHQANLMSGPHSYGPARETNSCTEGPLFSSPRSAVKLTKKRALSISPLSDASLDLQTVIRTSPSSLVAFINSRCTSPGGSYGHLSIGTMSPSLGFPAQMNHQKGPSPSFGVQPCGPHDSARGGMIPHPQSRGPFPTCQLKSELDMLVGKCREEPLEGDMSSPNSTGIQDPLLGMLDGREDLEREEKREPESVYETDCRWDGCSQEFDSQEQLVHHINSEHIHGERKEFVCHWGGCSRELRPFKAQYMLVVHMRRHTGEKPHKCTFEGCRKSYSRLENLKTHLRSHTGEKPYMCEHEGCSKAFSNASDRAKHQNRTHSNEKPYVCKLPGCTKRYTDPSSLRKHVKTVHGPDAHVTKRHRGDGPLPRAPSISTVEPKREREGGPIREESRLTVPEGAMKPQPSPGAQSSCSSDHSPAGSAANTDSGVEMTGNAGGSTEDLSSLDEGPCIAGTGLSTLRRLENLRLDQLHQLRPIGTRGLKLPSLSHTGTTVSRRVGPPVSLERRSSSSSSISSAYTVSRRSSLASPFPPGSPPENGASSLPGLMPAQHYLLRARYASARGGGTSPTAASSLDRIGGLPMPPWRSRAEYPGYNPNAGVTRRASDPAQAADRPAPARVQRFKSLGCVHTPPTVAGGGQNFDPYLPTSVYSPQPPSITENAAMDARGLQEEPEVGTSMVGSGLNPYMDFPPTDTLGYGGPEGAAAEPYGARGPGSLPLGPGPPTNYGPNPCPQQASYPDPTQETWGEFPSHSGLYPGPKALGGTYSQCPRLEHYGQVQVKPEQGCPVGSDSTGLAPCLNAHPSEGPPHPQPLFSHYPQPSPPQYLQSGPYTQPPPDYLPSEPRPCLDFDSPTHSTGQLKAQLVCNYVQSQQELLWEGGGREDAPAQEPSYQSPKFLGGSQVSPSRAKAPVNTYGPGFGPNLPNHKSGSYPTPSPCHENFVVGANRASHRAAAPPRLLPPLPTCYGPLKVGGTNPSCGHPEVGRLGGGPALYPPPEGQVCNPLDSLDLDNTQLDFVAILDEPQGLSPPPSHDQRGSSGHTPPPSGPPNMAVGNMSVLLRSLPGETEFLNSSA

[3] = KLF10 reporter activity, 100 μM, Table 1, read-out: % Inhibition at 100 μM (± sd)
[4] = concentration that inhibited 50% of KLF10 reporter activity, Table 1, read-out: IC50

Structure (SMILES): Cc1sc2nc(SCC(=O)c3ccc(O)c(O)c3)nc(O)c2c1C [#15-09]
inhibition of the percentage of CD4+CD25+ T regs (CD4+CD25− T cells): 29.2%
inhibition of Foxp3 expression (Foxp3): 90.8%

inhibition at 8 µM (KLF10 [1]; 8 μM): 11%
inhibition at 40 µM (KLF10 [1]; 40 μM): 25%
induction of luciferase activity by exogenous KLF10 expression blocked (KLF10 [2]; 100 μM, FIG. 1C): 96.6%
inhibition at 100 µM (KLF10 [2]; [3]): 54.5 ± 8%
inhibition at 100 µM (KLF10 [2]; KLF10 reporter activity, 100 μM, Table 2, read-out: % Inhibition 100 μM (± sd)): 54.5 ± 8%
IC50 (KLF10 [2]; KLF10 reporter activity, Table 2, read-out: IC50): 112 µM
IC50 (KLF10 [2]; [4]): 112 µM
IC50 (KLF10 [2]; non-linear regression of dose-response, FIG. 2A-2C, read-out: IC50 on KLF10 transcriptional activity): 112 µM
Structure (SMILES): Cc1ccc(OCC(=O)c2cc(C)c(O)cc2O)cc1 [#48]
inhibition of the percentage of CD4+CD25+ T regs (CD4+CD25− T cells): 57.4%
TGF-beta1 expression in CD4+ T cells from tumors (TGF-beta1): reduced TGF-beta1 expression
inhibition of Foxp3 expression (Foxp3): 84.7%
B16 melanoma tumor inhibition (B16 melanoma tumor; local injection Day 0, 20 mg/kg, FIG. 11): inhibits
B16 melanoma tumor model inhibition (B16 melanoma tumor; systemic delivery i.p. Day 3, 200 mg/kg, FIG. 12): inhibits
prostate TRAMP-C2 tumor inhibition (prostate TRAMP-C2 tumors): inhibits

inhibition at 100 µM (KLF10 [2]; [3]): 61.7 ± 2.6%
IC50 (KLF10 [2]; [4]): 10 µM
Structure (SMILES): Cc1cc(C(=O)Nc2cnc(O)nc2O)ccc1[N+](=O)[O-] [#77]

inhibition at 100 µM (KLF10 [2]; [3]): 31.9 ± 0.4%
Structure (SMILES): OC1=CN=C(O)/C1=C/Nc1ccccc1O [#82]

Structure (SMILES): c1cc(-c2sc(-c3ccncc3)c(-c3ccncc3)c2-c2ccncc2)ccn1 [GANT58]
GLI-induced transcription (GLI): inhibited

Structure (SMILES): CN(C)c1ccccc1CN1CCCN(Cc2ccccc2N(C)C)C1c1ccncc1 [GANT61]
GLI-induced transcription (GLI): inhibited

inhibition at 100 µM (KLF10 [2]; [3]): 71.8 ± 0.9%
IC50 (KLF10 [2]; [4]): 50 µM
Structure (SMILES): Cc1ccc(C(=O)c2cc(O)c(O)c([N+](=O)[O-])c2)cc1 [Tolcapone, reference compound]
